We go through one molecule from paper PMC6940986, “Structural Insights into the Intracellular Region of the Human Magnesium Transport Mediator CNNM4” (International Journal of Molecular Sciences, 2019).

The target of this test is T1, hCNNM4BAT (CNNM4BAT) (Homo sapiens, UniProt Q6P4Q7).
T1 construct: gene CNNM4; Bateman module (CBS1-CBS2) with helix H0; for NMR U-15N, N-terminal His6-V5-TEV site tag (pET151-D/TOPO), tag cleavage not described; E. coli BL21 CodonPlus; homodimer (CBS module)
The test is described as follows: 2D […]-HSQC NMR titration; 1H STD NMR. It is filed as binding. Particulars: estimated; no Mg2+ added; 100 mM HEPES, pH 7.4 preset (7.2 in results), 100 mM NaCl, 298 K; 100 uM protein.

T1 sequence (Q6P4Q7 359-511): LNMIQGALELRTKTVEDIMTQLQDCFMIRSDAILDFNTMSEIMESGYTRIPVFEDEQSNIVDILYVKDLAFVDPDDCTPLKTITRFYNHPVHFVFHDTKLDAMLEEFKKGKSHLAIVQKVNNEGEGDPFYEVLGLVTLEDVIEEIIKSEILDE

On to `Nc1ncnc2c1ncn2[C@@H]1O[C@H](COP(=O)(O)OP(=O)(O)NP(=O)(O)O)[C@@H](O)[C@H]1O` [ADPNP], for which the KD is on record as ~ 10^−2 to 10^−3 M.
